Assay results published in patent US10172905B1, “Treatment of protein degradation disorders” (President and Fellows of Harvard College, priority 2005, dated 2019).
Like-named read-outs stand apart in the source and are kept apart here. One block for each compound: values may come before it. Non-standard residues stand in square brackets, D forms with d. Residues, ends and D or L forms follow the SMILES beside them. Aoe = N[C@@H](CCCCCC(=O)[C@@H]1CO1)C(=O)O

Tests used:
MM.1S and RPMI cells = assay: Synergy with Velcade/Bortezomib in myeloma cell lines; assay type: cell-based
[1] = test system: tubulin acetylation versus lysine acetylation; assay: Immunofluorescence assay for acetylated tubulin versus acetylated lysine; assay type: cell-based; conditions: cells not given
Description: The present invention provides an immunofluorescence-based assay for identifying test agents with HDAC and/or TDAC inhibitory activity. The inventive assay is based on the use of specific antibodies for acetylated tubulin and acetylated lysine (i.e., a marker for acetylated histones). […] As described above, any type of agent, including small molecules, polymers, biomolecules, proteins, peptides, polynucleotides, etc., may be screened using the inventive assay. In certain embodiments, small molecules are screened. In certain particular embodiments, the small molecules are tubacin-like or are tubacin derivatives. In certain embodiments, the small molecules are compounds of the present invention. The test agents may also be small molecules purchased, prepared through traditional synthetic techniques, prepared through combinatorial chemistry techniques, or obtained from historical chemical collections. In certain embodiments, the test agents are biomolecules. In other embodiments, the test agents are proteins or peptides. In yet other embodiments, the test agents are polynucleotides. In certain embodiments, the test agents are polymers.
The assay involves contacting cells with a specific concentration of the test agent under specific conditions. […] There particular parameters may be determined by the operator or scientist conducting the assay as would be appreciated by one of skill in this art. After a determined time of incubation with the test compound, the cells are treated with a first primary antibody directed against acetylated tubulin and a second primary antibody directed against acetylated lysine. […] The signal from each of the secondary antibodies is measured and optionally quantitated to determine the amount of TDAC and HDAC inhibition under the specified conditions with the test agent. Optionally, the extent of inhibition is determined relative to a control in which no test agent was added. In certain embodiments, the secondary antibody is left out and the primary antibodies are uniquely labeled for identification and optionally quantification. […]

HDAC6 [2] = target: T1, HDAC6 (Homo sapiens, UniProt Q9UBN7); conditions: stated property of control compound; cited from earlier work
T1 sequence (Q9UBN7 1-1215): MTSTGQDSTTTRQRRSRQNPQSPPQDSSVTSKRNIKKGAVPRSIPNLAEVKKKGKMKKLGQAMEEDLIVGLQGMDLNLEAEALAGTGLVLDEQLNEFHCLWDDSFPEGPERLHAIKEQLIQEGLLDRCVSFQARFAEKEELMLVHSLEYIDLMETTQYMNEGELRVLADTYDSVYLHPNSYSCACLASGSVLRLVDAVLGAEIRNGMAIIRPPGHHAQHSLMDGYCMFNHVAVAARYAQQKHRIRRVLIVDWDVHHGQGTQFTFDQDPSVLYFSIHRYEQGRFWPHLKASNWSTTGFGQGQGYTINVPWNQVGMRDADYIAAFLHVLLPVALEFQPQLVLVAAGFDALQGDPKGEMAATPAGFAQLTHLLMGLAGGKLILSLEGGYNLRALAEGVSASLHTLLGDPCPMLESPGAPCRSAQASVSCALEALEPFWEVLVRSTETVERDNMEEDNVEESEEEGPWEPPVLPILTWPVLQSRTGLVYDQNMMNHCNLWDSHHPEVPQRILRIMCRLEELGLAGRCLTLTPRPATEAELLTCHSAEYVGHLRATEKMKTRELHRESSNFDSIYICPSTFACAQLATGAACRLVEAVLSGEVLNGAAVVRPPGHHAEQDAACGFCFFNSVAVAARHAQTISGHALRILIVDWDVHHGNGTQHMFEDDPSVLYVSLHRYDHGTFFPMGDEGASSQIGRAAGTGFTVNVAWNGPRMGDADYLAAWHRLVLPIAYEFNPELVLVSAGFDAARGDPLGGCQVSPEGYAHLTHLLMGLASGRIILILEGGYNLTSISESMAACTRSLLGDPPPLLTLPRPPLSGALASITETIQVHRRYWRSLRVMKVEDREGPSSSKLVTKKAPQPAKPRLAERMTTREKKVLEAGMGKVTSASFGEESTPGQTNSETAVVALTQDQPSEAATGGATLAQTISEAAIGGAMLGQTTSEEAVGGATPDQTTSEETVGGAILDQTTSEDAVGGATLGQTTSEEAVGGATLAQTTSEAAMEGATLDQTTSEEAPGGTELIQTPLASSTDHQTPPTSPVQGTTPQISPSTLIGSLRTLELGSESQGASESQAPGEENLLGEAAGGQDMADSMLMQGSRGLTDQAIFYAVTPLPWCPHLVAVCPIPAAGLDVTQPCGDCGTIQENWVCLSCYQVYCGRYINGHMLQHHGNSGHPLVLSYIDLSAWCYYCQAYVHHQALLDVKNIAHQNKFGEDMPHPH

MM.1S cells [3] = assay: Cell cycle profile by flow cytometry (PI staining); assay type: cell-based, human; conditions: bortezomib 5 nM alone, 24 h; increased from 14.2%
Protocol: […] Cells were then stained with propidium iodine (PI, Sigma) (5 μg/ml) and cell cycle profile was determined using program M software on an Epics flow cytometer (Coulter Immunology, Hialeah, Fla.) (44).

[4] = test system: JNK phosphorylation and caspase/PARP cleavage; assay: Western blotting for p21Cip1, p-JNK, caspases and PARP; assay type: cell-based, human; conditions: MM.1S cells, tubacin 5 μM and/or bortezomib 5 nM, 24 h
Protocol: (§1) MM cells were cultured with Velcade and/or Tubacin; harvested; washed; and lysed using lysis buffer: 50 mM Tris-HCl (pH 7.4), 150 mM NaCl, 1% NP-40, 5 mM EDTA, 5 mM NaF, 2 mM Na3VO4, 1 mM PMSF, 5 μg/ml leupeptine, and 5 μg/ml aprotinin. Cell lysates were subjected to SDS-PAGE, transferred to PVDF membrane (Bio-Rad Laboratories, Hercules, Calif.), and immunoblotted with Abs against specific proteins.
(§2) Cells cultured with tubacin and/or bortezomib were harvested; washed, and lysed using lysis buffer: 50 mM Tris-HCl (pH 7.4), 150 mM NaCl, 1% NP-40, 5 mM EDTA, 5 mM NaF, 1 mM Na3VO4, 1 mM PMSF, 5 μg/ml leupeptine, and 5 μg/ml aprotinin. Whole cell lysates were subjected to SDS-PAGE, transferred to nitrocellulose membrane (Bio-Rad Laboratories, Hercules, Calif.), and immunoblotted with specific Abs (31). Western blotting was done using anti-HDAC6, acetylated lysine, acetylated histone H3, acetylated histone H4, ubiquitin (Ub), phospho-SAPK (JNK), caspase-8 caspase-9, caspase-3, and PARP Abs (Cell Signaling, Beverly, Mass.); with anti-α-tubulin Ab (Santa Cruz Biotechnology, Santa Cruz, Calif.); as well as with anti-dynein Ab (Sigma, Saint Louis, Mo.). For immunoprecipitation, whole cell lysates were incubated with anti-Ub or dynein Abs overnight at 4° C., and then incubated with protein A/G PLUS-Agarose (Santa Cruz Biotechnology) for 2 h at 4° C., as in our prior study (31). Immunoprecipitates were then subjected to Western blotting for detection of HDAC6 and dynein.

MM.1S and RPMI8226 cells = assay: [3H]-thymidine uptake of MM cells adherent to BMSCs; assay type: cell-based, human; conditions: MM cells adherent to BMSCs, 24 h
Protocol: […] DNA synthesis was measured as described above.
After treatment, DNA synthesis was measured by [^3H]-thymidine (Perkin Elmer, Boston Mass.) uptake, as previously described (44). All experiments were performed in quadruplicate.

[5] = test system: MM.1S cells and RPMI cells; assay: Inhibition of protein catabolism in myeloma cells; assay type: cell-based; conditions: FIG. 18
RPMI8226 cells = conditions: 24 h
Protocol: The inhibitory effect of bortezomib and/or tubacin on MM cell growth was assessed by measuring 3-(4,5-dimethylthiazol-2-yl)-2,5-diphenyl tetrazolium bromide (MTT) dye absorbance, as described previously (33). Cells from 48 h cultures were pulsed with 10 μl of 5 mg/ml MTT to each well for the last 4 h of 48 h cultures, followed by 100 μl isopropanol containing 0.04N HCl. Absorbance was measured at 570 nm using a spectrophotometer (Molecular Devices Corp., Sunnyvale Calif.). All experiments were performed in quadruplicate.

[6] = test system: patients with refractory relapsed MM; conditions: 202 patients; cited from earlier work
MM.1S cells [7] = assay: MTT assay with niltubacin or HDAC6 siRNA, with or without bortezomib; assay type: cell-based, human; conditions: niltubacin 2.5 and 5 μM, 5 nM bortezomib
Protocol: The inhibitory effect of bortezomib and/or tubacin on MM cell growth was assessed by measuring 3-(4,5-dimethylthiazol-2-yl)-2,5-diphenyl tetrazolium bromide (MTT) dye absorbance, as described previously (33). […] All experiments were performed in quadruplicate.
MM.1S cells were transiently transfected with HDAC6 siRNA (Dharmacon Inc., Lafayette, Colo.) using “Cell Line Nucleofecto™ Kit V,” according to manufacturer's (Amaxa Biosystems, Gaithersburg, Md.) instructions (33). Following transfection, MM.1S cells were subjected to Western blotting and MTT assay, in the presence or absence of bortezomib.

HDAC6 [8] = target: T1, HDAC6; assay: Western blotting with anti-acetylated lysine / HDAC6 Abs; assay type: cell-based; set-up: MM.1S, U266, INA-6, RPMI8226, and RPMI-LR5 MM cell lines constitutively express HDAC6; endogenous in cells; host or cells: MM.1S, RPMI8226 and other MM cell lines; MM patient BMPCs/PBMCs; conditions: niltubacin 2.5 and 5 μM, 24 h, MM.1S cells
Protocol: as §1, §2

Compound: O=C(CCCCCCC(=O)Nc1ccc(C2OC(CSc3nc(-c4ccccc4)c(-c4ccccc4)o3)CC(c3ccccc3)O2)cc1)NO (centres unmarked) [DHM-Tubacin, des(hydromethyl)-Tubacin]
- synergy with Velcade (MM.1S and RPMI cells; MM.1S and RPMI cells): synergy
- specificity for tubulin acetylation versus lysine acetylation [1]: specificity

Compound: Cc1[nH]c2ccccc2c1CCNCc1ccc(/C=C/C(=O)NO)cc1 [LBH589, reference compound]
- toxicity and synergy with Bortezomib (MM.1S and RPMI cells; MM.1S cells): toxicity and synergy
- toxicity and synergy with Bortezomib (MM.1S and RPMI cells; RPMI-8226 cells): toxicity and synergy

Compound: CC(/C=C/C(=O)NO)=C\[C@@H](C)C(=O)c1ccc(N(C)C)cc1 [Trichostatin]
- inhibition of HDAC6 (HDAC6 [2]): potent inhibitor of both HDAC6 domains

Compound: CC(C)C[C@H](NC(=O)[C@H](Cc1ccccc1)NC(=O)c1cnccn1)B(O)O [bortezomib]
- G2M phase MM.1S cells (MM.1S cells [3]): 39.5%
- phosphorylation of JNK and caspase/PARP cleavage [4]: induces only modest phosphorylation of JNK as well as caspase-9, -8, -3 and PARP cleavage
- BMSC-induced [3H]-thymidine uptake / MM cell growth with BMSCs, single agent (MM.1S and RPMI8226 cells): inhibits BMSC-induced [^3H]-thymidine uptake in a dose-dependent fashion
- inhibition of protein catabolism [5]: potent inhibitors of protein catabolism
- RPMI8226 cell death (RPMI8226 cells; 5 nM bortezomib alone): 26%
- RPMI8226 cell death (RPMI8226 cells; 10 nM bortezomib alone): 66%
- complete and near complete responses [6]: 10%
- patients who did not respond [6]: 65%
- responses [6]: 35%

- acetylation of α-tubulin (HDAC6 [8]): does not affect
Compound: O=C(O)CCCCCCC(=O)Nc1ccc([C@H]2O[C@@H](CSc3nc(-c4ccccc4)c(-c4ccccc4)o3)C[C@@H](c3ccc(CO)cc3)O2)cc1 [niltubacin, reference compound]
- enhancement of cytotoxicity induced by bortezomib (MM.1S cells [7]): does not affect either acetylation of α-tubulin (FIG. 4F) or enhance cytotoxicity

Compound: O=C1N[C@@H](Cc2ccccc2)C(=O)N2CCC[C@@H]2C(=O)N[C@@H](CCCCCC(=O)[C@@H]2CO2)C(=O)N[C@H]1Cc1ccccc1 [trapoxin] (cyclo(FF[dP][Aoe]))
- inhibition of HDAC6 (HDAC6 [2]): does not inhibit HDAC6
